IC50 data for three compounds are collected here from publication PMC9137614, “TXH11106: A Third-Generation MreB Inhibitor with Enhanced Activity against a Broad Range of Gram-Negative Bacterial Pathogens” (Antibiotics, 2022).

By IC50 is commonly meant the concentration at which inhibition is half-maximal.

Like-named read-outs stand apart in the source and are kept apart here.

The assay concerns the target T1, MreB (EcMreB) (Escherichia coli, UniProt P0A9X4).
T1 construct: N-terminal 8× His-tagged E. coli MreB (mreB from ATCC 25922), wild-type
As to the kind of experiment: malachite green ATPase assay with purified EcMreB; Eadie–Hofstee kinetics. The format is biochemical.

T1 sequence (P0A9X4 whole entry): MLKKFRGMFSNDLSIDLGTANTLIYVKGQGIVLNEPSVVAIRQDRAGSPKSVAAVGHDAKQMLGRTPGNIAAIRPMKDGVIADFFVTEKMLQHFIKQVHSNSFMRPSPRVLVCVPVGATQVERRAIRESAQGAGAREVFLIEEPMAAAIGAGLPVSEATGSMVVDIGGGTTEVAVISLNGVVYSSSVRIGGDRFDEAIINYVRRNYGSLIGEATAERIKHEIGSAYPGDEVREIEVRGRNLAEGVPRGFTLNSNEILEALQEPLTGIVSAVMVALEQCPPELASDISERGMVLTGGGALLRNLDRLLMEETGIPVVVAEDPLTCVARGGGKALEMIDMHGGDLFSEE

In the case of `NC1CCCc2c1[nH]c1ccc(Cl)c(Cl)c21` (stereo not drawn) [compound 4, 5,6-dichloro-2,3,4,9-tetrahydro-1H-carbazol-1-amine], where the note is “read-out: IC50”, the IC50 was 14 ± 2 µM.
Same read-out and setting: to `NC1CCCc2c1[nH]c1ccc(Br)cc21` (stereo not drawn) [CBR-4830] belongs 49 ± 8 µM.
Take `N=C(N)SCc1ccc(Cl)c(Cl)c1` [A22]: the IC50 came to 447 ± 87 µM.
